{"source": "paper PMC6857051", "about": "“Proliferative regulation of alveolar epithelial type 2 progenitor cells by human Scnn1d gene” (Theranostics, 2019)", "molecules": {"B1": {"name": "plasmin: serine protease of the plasmin(ogen) signal pathway for fibrinolysis (protein, UniProt P00747 20-580; P00747 581-810, looked up)", "Plasmin heavy chain A": "EPLDDYVNTQGASLFSVTKKQLGAGSIEECAAKCEEDEEFTCRAFQYHSKEQQCVIMAENRKSSIIIRMRDVVLFEKKVYLSECKTGNGKNYRGTMSKTKNGITCQKWSSTSPHRPRFSPATHPSEGLEENYCRNPDNDPQGPWCYTTDPEKRYDYCDILECEEECMHCSGENYDGKISKTMSGLECQAWDSQSPHAHGYIPSKFPNKNLKKNYCRNPDRELRPWCFTTDPNKRWELCDIPRCTTPPPSSGPTYQCLKGTGENYRGNVAVTVSGHTCQHWSAQTPHTHNRTPENFPCKNLDENYCRNPDGKRAPWCHTTNSQVRWEYCKIPSCDSSPVSTEQLAPTAPPELTPVVQDCYHGDGQSYRGTSSTTTTGKKCQSWSSMTPHRHQKTPENYPNAGLTMNYCRNPDADKGPWCFTTDPSVRWEYCNLKKCSGTEASVVAPPPVVLLPDVETPSEEDCMFGNGKGYRGKRATTVTGTPCQDWAAQEPHRHSIFTPETNPRAGLEKNYCRNPDGDVGGPWCYTTNPRKLYDYCDVPQCAAPSFDCGKPQVEPKKCPGR", "Plasmin light chain B": "VVGGCVAHPHSWPWQVSLRTRFGMHFCGGTLISPEWVLTAAHCLEKSPRPSSYKVILGAHQEVNLEPHVQEIEVSRLFLEPTRKDIALLKLSSPAVITDKVIPACLPSPNYVVADRTECFITGWGETQGTFGAGLLKEAQLPVIENKVCNRYEFLNGRVQSTELCAGHLAGGTDSCQGDSGGPLVCFEKDKYILQGVTSWGLGCARPNKPGVYVRVSRFVTWIEGVMRNN", "modifications": "Plasmin", "notes": "serine protease of the plasmin(ogen) signal pathway for fibrinolysis"}}, "key": {"[1]": {"system": "ENaC activity in mouse AT2 monolayers", "experiment": "Ussing chamber short-circuit current, mAT2 monolayers", "format": "cell-based", "details": "mAT2 (and MTE) monolayers, Isc, Figure 5D", "procedure": "Mouse AT2 cell isolation and monolayer cultures. Mouse AT2 cells were isolated from both wt and Scnn1d Tg/Cre strains with C57BL/6 genetic background with a modified protocol of a previous publication, [72]. Briefly, lungs of euthanized mice were removed and incubated in dispase for 45 minutes, and then were gently teased and incubated in DMEM/F-12 + 0.01% DNase I for 10 minutes. Cells were passed through a serial of Nitex filters (100, 40, 30, and 10 microns; Corning, USA) and centrifuged at 300 × g for 10 minutes. Resuspended cells were incubated with biotin conjugated anti-CD16/32, CD45 and CD119 antibodies (BD Pharmingen, USA) and then incubated with streptavidin-coated magnetic particles. The cells were then incubated for 2 h at 37 °C in a plastic culture dish precoated with mouse IgG to remove fibroblasts. Upon passing the request for both viability (> 90%) and purity assays (> 94%) (Figures S7 & S8), mouse laminin 1 precoated transwells (Corning Costar, USA) were seeded with AT2 cells (10^6 cells/cm^2). […] Transepithelial resistance (RT) and potential difference (ET) were measured with an epithelial voltohmmeter (World Precision Instrument, USA). IEQ values were calculated as the ratio of ET / RT values. […] The transmonolayer potential was short circuited to 0 mV, and Isc level was measured with an epithelial voltage clamp (VCC-MC8, Physiologic Instruments). […]"}, "[2]": {"system": "alveolar fluid clearance in human lungs", "experiment": "Alveolar fluid clearance in human lungs ex vivo", "details": "n=5 per group, 60 minutes after instillation", "description": "Alveolar fluid clearance in human lungs ex vivo. The studies followed the guide of the […] and were approved by the Ethics Committee of the China Medical University (CMU) at Shenyang, China. All patients were given oral and written informed consent forms. Human lung tissues were obtained during pulmonary resection surgeries with lung cancer at the First Affiliated Hospital of CMU. There were no fibrous or emphysematous lesions as assessed by preoperative chest CT scanning. Human lung segments were prepared, and AFC measurements were done as described previously. Briefly, the segmental bronchus was occluded by a 10-Fr. balloon catheter immediately after removal of the lung, and occluded segments that were located furthest away from the focus of tumor were chosen. A warmed physiologic saline solution (20 ml; 37°C) containing 5% BSA with or without amiloride (1 mM) was instilled into the distal air spaces through the catheter. After instillation, the lungs were inflated with 100% oxygen at an airway pressure of 7 cm H2O. Alveolar fluid was aspirated 60 minutes after instillation. […] AFC values were calculated as follows: AFC = [(Vi - Vf)/Vi] × 100, where V is the volume of the instilled albumin solution (i) and the final alveolar fluid (f). […]"}, "[3]": {"system": "δ802- and γ-ENaC subunits", "experiment": "Immunoblot of cleavage of tagged δ802- and γ-ENaC subunits in oocytes by serine proteases", "format": "biochemical, human", "details": "10 μg/ml, 45 minutes at room temperature", "procedure": "Figure 3 Activation of δ802-containing ENaC channels by serine proteases. (A) Activation of δ802βγ ENaC expressed in Xenopus oocytes by two-chain urokinase plasminogen activator (tc-uPA). ENaC activity was measured at the membrane potential of -100 mV at defined time points post incubation with 10 μg/ml tc-uPA. n = 9-15. mean ± s.e.m. * P<0.05 vs data at the zero minute (min). (B) Time course of stimulatory effects of plasmin on δ802βγ-ENaC activity. n=12. * P<0.05. (C) Identification of subunit responsible for plasmin activation. Fold of amiloride-sensitive current (ASI) of ENaC-associated current in the presence of plasmin over that in the absence of plasmin was computed for oocytes expressing δ802+β+γ (δβγ), δ802 alone (δ), δ802+β(δβ), and δ802+γ (δγ). n = 12-15. * P<0.05. (D) Inhibitory effects of α-13 peptide on δ802αβγ- (δαβγ) and αβγ-ENaC activity post treatment of plasmin and aprotinin. Currents (I) at -100 mV were compared in the absence of amiloride (basal, open bar), presence of α-13 peptide (α13, closed bar), and amiloride (amil, grey bar). n=5. * P<0.05 vs basal currents, & P < 0.05 vs those in the presence of α-13 peptide. (E) Fractions of α-13 sensitive currents in cells pre-treated with plasmin and aprotinin. n=8. Control, without pre-treatment. (F) Cleavage of V5-tagged δ802- and γ-ENaC subunits by serine proteases. NI, non-injected oocytes as negative controls for ENaC expression. Oocytes incubated with chymotrypsin (CT, 10 μg/ml), plasmin (PI, 10 μg/ml) for 45 minutes at room temperature. Cells treated with the same volume of saline (‑) were controls for serine proteases."}}}
{"molecule": "N=C(N)NC(=O)c1nc(Cl)c(N)nc1N", "note": "[amiloride]", "values": [{"measurement": "apparent ki value of amiloride, controls versus δ802-expressing cells", "setting": "[1]", "result": "much lesser in controls"}]}
{"molecule": "Ac-LRGTLPHPLQRLR-NH2 [α-13 peptide]", "values": [{"measurement": "fraction of total alveolar fluid clearance inhibited", "setting": "[2]", "result": "Approximately half"}]}
{"molecule": "B1", "values": [{"measurement": "cleavage of γ-ENaC", "setting": "[3]", "result": "catalyzed"}, {"measurement": "cleavage of δ802 subunit", "setting": "[3]", "result": "Neither chymotrypsin nor plasmin nor endogenous furin cleaved the δ802 subunit"}]}
